Laboratory results: ChEMBL document CHEMBL1201862, “PubChem BioAssay data set” (2004)
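These data come from cells grown in 96-well plates and exposed to compound for 48 hours at five concentrations. Abbreviation: GI50, concentration required for 50% inhibition of growth.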 Activity calls are given as the source filed them. Cut-off read from the data, not from the text of the source: active = GI50 up to about 1.1 µM and inactive = higher.

Experiments:
Experiment in all cases: NCI tumour cell line growth inhibition, 48 h
CAKI-1 = tested on: CAKI-1
HCT-116 = tested on: HCT-116
HL-60 = tested on: HL-60
HOP-62 = tested on: HOP-62
HOP-92 = tested on: HOP-92
HT-29 = tested on: HT-29
IGROV-1 = tested on: IGROV-1
KM12 = tested on: KM12
LOX IMVI = tested on: LOX IMVI
MDA-MB-231 = tested on: MDA-MB-231
MDA-MB-435 = tested on: MDA-MB-435
NCI-H522 = tested on: NCI-H522
NCI/ADR-RES = tested on: NCI/ADR-RES
OVCAR-5 = tested on: OVCAR-5
SF-539 = tested on: SF-539
SK-MEL-5 = tested on: SK-MEL-5
SNB-75 = tested on: SNB-75
UACC-62 = tested on: UACC-62
UO-31 = tested on: UO-31
HCC 2998 = tested on: HCC 2998

SMILES	GI50 (CAKI-1)	GI50 (HCT-116)	GI50 (HL-60)	GI50 (HOP-62)	GI50 (HOP-92)	GI50 (HT-29)	GI50 (IGROV-1)	GI50 (KM12)	GI50 (LOX IMVI)	GI50 (MDA-MB-231)	GI50 (MDA-MB-435)	GI50 (NCI-H522)	GI50 (NCI/ADR-RES)	GI50 (OVCAR-5)	GI50 (SF-539)	GI50 (SK-MEL-5)	GI50 (SNB-75)	GI50 (UACC-62)	GI50 (UO-31)	GI50 (HCC 2998)
Nc1nc(N)c(N=Nc2ccc([As](=O)(O)O)c(O)c2)c(N)n1	58.3 µM (inactive)	7.24 µM (inactive)	2.96 µM (inactive)	8.59 µM (inactive)	35.3 µM (inactive)	3.75 µM (inactive)	4.61 µM (inactive)	28.8 µM (inactive)	6.67 µM (inactive)	> 54.2 µM (inactive)	0.82 µM (active)	3.5 µM (inactive)	> 100 µM (inactive)	> 100 µM (inactive)	17.1 µM (inactive)	20.3 µM (inactive)	11.5 µM (inactive)	31.5 µM (inactive)	> 88.9 µM (inactive)	
C=C1[C@H]2O[C@H]2[C@@H](OC(C)=O)[C@@]2(C)[C@@H](OC(C)=O)C[C@@H](OC(=O)CCC)[C@@](C)(O)[C@@H]2[C@@H](OC(C)=O)[C@]2(O)[C@@H](C)C(=O)O[C@H]2[C@H]1Cl	> 100 µM (inactive)	> 100 µM (inactive)	> 100 µM (inactive)	> 100 µM (inactive)	> 100 µM (inactive)	> 100 µM (inactive)		> 100 µM (inactive)		> 100 µM (inactive)	> 100 µM (inactive)	> 100 µM (inactive)	> 100 µM (inactive)	> 100 µM (inactive)	> 100 µM (inactive)	> 100 µM (inactive)	> 100 µM (inactive)	> 100 µM (inactive)	> 100 µM (inactive)	> 100 µM (inactive)
C[C@]12CC(c3ccccc3O1)C(C(=O)Nc1nc(C34CC5CC(CC(C5)C3)C4)cs1)C(=O)N2 (stereo not given in full)	> 100 µM (inactive)	98.9 µM (inactive)	> 100 µM (inactive)	> 100 µM (inactive)	> 100 µM (inactive)	> 100 µM (inactive)	75 µM (inactive)	> 100 µM (inactive)	> 100 µM (inactive)	> 100 µM (inactive)	> 100 µM (inactive)		> 100 µM (inactive)	> 100 µM (inactive)		> 100 µM (inactive)	> 100 µM (inactive)	> 100 µM (inactive)		> 100 µM (inactive)
COc1cc2c(cc1OCCCCCCCCCCN1C(=O)c3cccc4cccc(c34)C1=O)N=C[C@@H]1CCCN1C2=O	4.43 µM (inactive)	5.52 µM (inactive)	4.27 µM (inactive)	14.3 µM (inactive)		6.76 µM (inactive)	1.59 µM (inactive)	16.1 µM (inactive)	2.14 µM (inactive)	3.62 µM (inactive)	4.25 µM (inactive)	6.67 µM (inactive)	2.64 µM (inactive)	25.8 µM (inactive)	1.55 µM (inactive)	10.9 µM (inactive)	4.58 µM (inactive)	12.2 µM (inactive)	7.46 µM (inactive)	11.1 µM (inactive)
CC1(C)OC[C@@]2([C@@H]3CC[C@@H](C3)C2(C)C)N1O	> 100 µM (inactive)	> 100 µM (inactive)	> 100 µM (inactive)	> 100 µM (inactive)	27.4 µM (inactive)	> 100 µM (inactive)	> 100 µM (inactive)	> 100 µM (inactive)	92 µM (inactive)	> 100 µM (inactive)	> 100 µM (inactive)	62.1 µM (inactive)	> 100 µM (inactive)	> 100 µM (inactive)	> 100 µM (inactive)	> 100 µM (inactive)	> 100 µM (inactive)	> 100 µM (inactive)		
CSc1c(C#N)c(S)n(-c2ccc(Cl)cc2)c(=O)c1C#N	> 100 µM (inactive)	45.4 µM (inactive)	52.5 µM (inactive)			99.3 µM (inactive)	80.7 µM (inactive)	40.2 µM (inactive)	> 100 µM (inactive)	> 100 µM (inactive)	> 100 µM (inactive)	50.9 µM (inactive)	39.8 µM (inactive)	> 100 µM (inactive)	> 100 µM (inactive)	83.9 µM (inactive)	> 100 µM (inactive)	51.2 µM (inactive)	27.9 µM (inactive)	> 100 µM (inactive)
O=S(=O)(c1ccccc1)c1cccc2c1NCCC2	27.9 µM (inactive)	42.5 µM (inactive)	21.8 µM (inactive)	> 100 µM (inactive)	28.8 µM (inactive)	37.8 µM (inactive)	52.5 µM (inactive)	44.2 µM (inactive)	35.6 µM (inactive)	39.6 µM (inactive)	35.2 µM (inactive)		38.5 µM (inactive)	> 100 µM (inactive)	45 µM (inactive)	23.2 µM (inactive)	26.1 µM (inactive)	> 10 µM (inactive)	27.5 µM (inactive)	13.5 µM (inactive)
CS(=O)(=O)NC12CCC(c3ccccc31)c1ccccc12	> 100 µM (inactive)	> 100 µM (inactive)	> 100 µM (inactive)	> 100 µM (inactive)	> 100 µM (inactive)	> 100 µM (inactive)	> 100 µM (inactive)	> 100 µM (inactive)	> 100 µM (inactive)	> 100 µM (inactive)	> 100 µM (inactive)	> 100 µM (inactive)	> 100 µM (inactive)	> 100 µM (inactive)	> 100 µM (inactive)	> 100 µM (inactive)	> 100 µM (inactive)	> 100 µM (inactive)	> 100 µM (inactive)	
CSc1ccsc1-c1sc(-c2cc(SC)c(-c3sc(-c4cc(SC)c(-c5sccc5SC)s4)cc3SC)s2)cc1SC	17.2 µM (inactive)	75.9 µM (inactive)	0.356 µM (active)	> 100 µM (inactive)	62.4 µM (inactive)	93.5 µM (inactive)	> 100 µM (inactive)	65.2 µM (inactive)	> 100 µM (inactive)	> 100 µM (inactive)	20.9 µM (inactive)	18.3 µM (inactive)	45.7 µM (inactive)	> 100 µM (inactive)	> 100 µM (inactive)	> 100 µM (inactive)		42.2 µM (inactive)		> 100 µM (inactive)
O=c1[nH]n(CCc2ccccc2CCl)c2ccc([N+](=O)[O-])cc12	91 µM (inactive)	52.1 µM (inactive)	29.4 µM (inactive)	> 100 µM (inactive)	67.6 µM (inactive)	88.1 µM (inactive)	83.9 µM (inactive)	83.8 µM (inactive)	41.5 µM (inactive)	76.2 µM (inactive)	63.5 µM (inactive)	52.6 µM (inactive)	31.8 µM (inactive)	> 100 µM (inactive)	> 100 µM (inactive)	29.7 µM (inactive)		45.8 µM (inactive)	25 µM (inactive)	> 100 µM (inactive)
CCOC(=O)NC(C(C(=O)OCC)C(=O)OCC)(C(F)(F)F)C(F)(F)F	> 100 µM (inactive)	> 100 µM (inactive)	> 100 µM (inactive)	> 100 µM (inactive)	> 100 µM (inactive)	> 100 µM (inactive)	> 100 µM (inactive)	> 100 µM (inactive)	> 100 µM (inactive)	> 100 µM (inactive)	> 100 µM (inactive)	> 100 µM (inactive)	> 100 µM (inactive)	> 100 µM (inactive)	> 100 µM (inactive)	> 100 µM (inactive)	> 100 µM (inactive)	> 100 µM (inactive)	> 100 µM (inactive)	
Cc1nn(-c2ccccc2)c2c1C(c1cc3ccccc3nc1Cl)NC(=O)N2 (stereo not given)	34.4 µM (inactive)	23.8 µM (inactive)	5.81 µM (inactive)	20.4 µM (inactive)	10.8 µM (inactive)	18.7 µM (inactive)	11 µM (inactive)	21.2 µM (inactive)	19.4 µM (inactive)	20.6 µM (inactive)	23.9 µM (inactive)	16.5 µM (inactive)	28.4 µM (inactive)	22.5 µM (inactive)	19.9 µM (inactive)	17 µM (inactive)	18.9 µM (inactive)	19 µM (inactive)	14.3 µM (inactive)	
COC12C=CC(C=C1C#N)CC2.COC12C=CC(CC1)CC2=O (stereo not given)	> 100 µM (inactive)	> 100 µM (inactive)	> 100 µM (inactive)	> 100 µM (inactive)	> 100 µM (inactive)	> 100 µM (inactive)	> 100 µM (inactive)	> 100 µM (inactive)		> 100 µM (inactive)	> 100 µM (inactive)	> 100 µM (inactive)	> 100 µM (inactive)	> 100 µM (inactive)	> 100 µM (inactive)	> 100 µM (inactive)	67.8 µM (inactive)	> 100 µM (inactive)	> 100 µM (inactive)	> 100 µM (inactive)
CC1=NN(C(=O)CC(=O)Nc2ccccc2Cl)C(=O)C1/N=N/c1ccc(C(=O)O)cc1 (stereo not given)	> 100 µM (inactive)	> 100 µM (inactive)	> 100 µM (inactive)	> 100 µM (inactive)	19.6 µM (inactive)	7.73 µM (inactive)	> 100 µM (inactive)	> 100 µM (inactive)	65.6 µM (inactive)	> 100 µM (inactive)	> 100 µM (inactive)	> 100 µM (inactive)	> 100 µM (inactive)	> 100 µM (inactive)	> 100 µM (inactive)	> 100 µM (inactive)		> 100 µM (inactive)	62.8 µM (inactive)	> 100 µM (inactive)
